Like-named read-outs stand apart in the source and are kept apart here.
What was measured:
[1] = tested on: human prostate cancer PC3 cells; assay: Differential display of genes altered by bFGF treatment; format: cell-based
Procedure: Differential display was used to identify the down-stream genes that are involved in the bFGF-induced multidrug resistance. […] By this method, the genes that were altered by bFGF treatment in PC3 cells but not in FaDu cells were identified. The identified genes are likely to be associated with the bFGF-induced multidrug resistance.
For differential display, total RNA was isolated from the cells and reverse-transcripted in single strand cDNA. PCR was performed using a pair of T and P primers. […] Five of these bands were reproducibly altered in PC3 cells, but not in FaDu cells. These bands were cut from the gels, reamplified and cloned into pGEM-T vector. Nine different clones were identified and sequenced. The gene sequence was compared to the data in the NCBI GenBank. […] Primers were synthesized for drug resistant cancer cells. Among the nine clones, five were altered reproducibly by bFGF treatment while bFGF had no effect on the remaining four clones. The expression of two of the known genes, TSC22 and VEGF, were increased by 20 to 40%, whereas the expression of the three new genes (temporarily named FSC-1, FSC-2, and FSC-3) were induced by 65%, 300%, and 40%. TSC22 and VEGF are not known to be regulated by bFGF.

[2] = tested on: Human prostate PC3 tumor cells; assay: aFGF/bFGF-induced resistance and reversal by suramin, sulforhodamine B assay; format: cell-based
Procedure: The experimental conditions are described briefly below. […] Cell number was measured using the sulforhodamine B assay which measures the total protein concentration. […] The FGF-induced resistance was dependent on the FGF concentrations, with a higher resistance at higher FGF concentrations.

[3] = tested on: human leukemic cell line CCRF-CEM; assay: FGF-induced resistance to fludarabine, MTT assay; format: cell-based; settings: 96 h, 96 hour treatment, read-out: concentration required to produce 50%
Human prostate PC3 = assay: FGF-induced resistance, inhibition of BrdU incorporation; format: cell-based; settings: cell lines derived from solid tumors; 1 ng/ml r-aFGF plus 1 ng/ml r-bFGF vs 50 ng/ml r-bFGF alone
Procedure: Prior to drug treatment, cells were incubated for 4 days with tumor CM or with r-aFGF ad/or r-bFGF-containing medium, supplemented with 1% FBS (final protein concentration adjusted to 2 mg/ml). The medium was renewed every other day.
The antiproliferative drug effect in histocultures was measured as inhibition of ^3H-thymidine incorporation quantified by autoradiography (Yen, W. C. et al. (1996) Pharm. Res. 13:1305-1312) and, for monolayers, as inhibition of BrdU incorporation or as reduction of total proteins by the sulforhodamine B assay (Au, J. L.-S. et al. (1998) Cancer Res. 58:2141-2148). For the latter, the two assays yielded qualitatively similar results. Cell kill induced by 96-hour drug treatment was monitored by the release of LDH into the culture medium. LDH activity was monitored by the conversion of tetrazolium to formazan (detected at 490 nm).
The experimental conditions are described briefly below. Cells were pretreated with human recombinant r-aFGF and/or r-bFGF for 96 hours and then with drugs for 96 hours. For the studies on cells derived from the human prostate, lung, pharynx, colon and breast cancer cells, the drug effect was determined by the inhibition of BrdU incorporation. For the study on the human leukemic cells, the drug effect was measured by the MTT assay, which measures the number of metabolically active cells (Alley, M. C. et al (1988) Cancer Res 48:589-601).

rat MAT-LyLu cells = assay: Restoration of resistance by recombinant FGF in FGF-immunoprecipitated CM; format: cell-based
Procedure: The study was performed using rat MAT-LyLu cells. The reversal in CM-induced resistance was detected by measuring the changes in BrdU incorporation in treated samples relative to control samples. The source of CM was lung histocultures for both aFGF and bFGF experiments. The study used two controls: no CM (left solid curves, empty circles); with CM (right solid curves, empty squares). Upper left: CM minus […] (filled square); CM minus aFGF plus r-aFGF (filled circles, overlaps with the right CM-control curve). Upper right: CM minus bFGF (filled square, overlaps with the left control curve); CM minus bFGF plus r-bFGF (filled circle, overlaps with the right CM control curve). Lower left: Both the CM minus aFGF and bFGF (filled square) and the CM minus aFGF and bFGF plus aFGF (filled circle) curves overlap with the left control curve. Lower center: CM minus aFGF and bFGF (filled square, overlaps with left control curve); CM minus aFGF and bFGF plus r-bFGF (filled circle). Lower right: CM minus aFGF and bFGF (filled square, overlaps with left control curve); CM minus aFGF and bFGF plus r-aFGF and r-bFGF (filled circle, overlaps with the right CM-control curve).
aFGF or bFGF was immunoprecipitated with their respective monoclonal antibody (1 microgram/ml), in the presence of Protein G PLUS/protein A agarose (Oncogene). This procedure reduced the bFGF level in the original CM to below the detection limit of 5 pg/ml by the ELISA (Oncogene), and the aFGF level in the concentrated CM to below the detection limit by Western blotting.
The third study determined whether aFGF and/or bFGF are required for the resistance. Endogenous aFGF and/or bFGF were removed from the active CM by immunoprecipitation, and then reconstituted the CM using recombinant proteins. […] The fifth study confirmed that aFGF and bFGF were the main cause of chemoresistance, by using only r-aFGF and r-bFGF (i.e., without the immunoprecipitated CM) to induce resistance (FIG. 3). When given alone, r-aFGF had no effect whereas r-bFGF induced a concentration-dependent resistance. […]

rat tumor cells = assay: Doubling time of exponentially growing cells; format: cell-based; settings: treatment with r-bFGF
PC3 tumor cells = assay: Doubling time of exponentially growing cells; format: cell-based, human; settings: treatment with r-bFGF
[4] = no suramin, relative to control

Compound: bFGF: basic Fibroblast Growth Factor used for treatment of PC3 cells
- induction of expression of FSC-1 [1]: 65%
- induction of expression of FSC-2 [1]: 300%
- induction of expression of FSC-3 [1]: 40%

Compound: Nc1nc(F)nc2c1ncn2[C@@H]1O[C@H](CO)[C@@H](O)[C@@H]1O [Fludarabine]
- IC50 ([2]; Homo sapiens, read-out: IC50, Control (drug treatment only, without FGF treatment), No suramin, drug 96 hours): 5.15 µM
- IC50 ([2]; Homo sapiens, read-out: IC50, aFGF 0.3 ng/ml + bFGF 1 ng/ml, No suramin, FGF pretreatment 96 hours, drug 96 hours): 13.5 µM
- IC50 ([2]; Homo sapiens, read-out: IC50, aFGF 1 ng/ml + bFGF 3 ng/ml, No suramin, FGF pretreatment 96 hours, drug 96 hours): 21.9 µM
- Resistance, Folds, aFGF 0.3 ng/ml + bFGF 1 ng/ml [2, 4]: 2.61 Folds
- Resistance, Folds, aFGF 1 ng/ml + bFGF 3 ng/ml [2, 4]: 4.25 Folds
- IC50 ([2]; read-out: IC50, Control (without FGF treatment), Suramin, 15 μM, drug 96 hours with 15 μM suramin): 5.2 µM
- IC50 ([2]; read-out: IC50, aFGF 0.3 ng/ml + bFGF 1 ng/ml, With suramin, FGF pretreatment 96 hours, drug 96 hours with 15 micromolar suramin): 4.69 µM
- IC50 ([2]; read-out: IC50, aFGF 1 ng/ml + bFGF 3 ng/ml, With suramin, FGF pretreatment 96 hours, drug 96 hours with 15 micromolar suramin): 5.85 µM
- IC50 ([3]; absence of FGF): 4 µM
- IC50 ([3]; r-aFGF (1 ng/ml) and r-bFGF (3 ng/ml)): 6 µM

Compound: r-aFGF: human recombinant aFGF, identical to the 14 kDa human aFGF except for the extra methionine at the amino terminus
- amplification of the r-bFGF effect by r-aFGF (Human prostate PC3): more than 50 fold
- induction of resistance (rat MAT-LyLu cells; added to CM depleted of both aFGF and bFGF): did not induce resistance

Compound: r-bFGF: human recombinant bFGF, identical to the 18 kDa human bFGF except for the extra methionine at the amino terminus
- doubling time, unchanged by treatment (rat tumor cells): 17 h
- doubling time, unchanged by treatment (PC3 tumor cells): 24 h
- concentration needed relative to the endogenous bFGF concentration in the native CM (rat MAT-LyLu cells; 50 ng/ml versus about 0.9 ng/ml): 55 fold
- concentration of exogenous r-bFGF needed to restore the resistance (rat MAT-LyLu cells; CM depleted of both aFGF and bFGF): 50 ng/mL

Source: patent US20040010001A1, “Methods and compositions for modulating cell proliferation and cell death” (priority 1999, published 2004)
